# Experimental data published in ChEMBL document CHEMBL1131668, “Purin-8-ones as corticotropin-releasing hormone (CRH-R1) receptor antagonists” (Bioorg Med Chem Lett, 1999).
# Target: T1, Corticotropin-releasing factor receptor 1 (Homo sapiens, UniProt P34998)
# T1 sequence (P34998 whole entry): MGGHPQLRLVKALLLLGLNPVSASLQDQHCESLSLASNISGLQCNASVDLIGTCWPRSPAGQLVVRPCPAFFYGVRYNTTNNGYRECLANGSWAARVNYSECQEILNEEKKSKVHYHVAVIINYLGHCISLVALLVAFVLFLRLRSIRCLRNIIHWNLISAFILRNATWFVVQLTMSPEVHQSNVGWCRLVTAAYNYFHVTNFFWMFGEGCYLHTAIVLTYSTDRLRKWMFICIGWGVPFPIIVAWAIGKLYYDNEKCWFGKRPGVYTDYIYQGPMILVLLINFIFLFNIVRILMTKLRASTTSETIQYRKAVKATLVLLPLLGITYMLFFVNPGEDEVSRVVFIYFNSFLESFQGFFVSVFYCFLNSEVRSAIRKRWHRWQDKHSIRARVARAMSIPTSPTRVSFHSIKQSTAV
# Assay: Binding affinity for transfected human Corticotropin releasing factor receptor expressed in HEK 293E cells using [125I]TYR-oCRH as the displaced radioligand
# Assay type: cell-based, HEK293
row,SMILES,Ki
1,COCCN(CC1CC1)c1nc(C)nc2c1n(C)c(=O)n2-c1ccc(C(C)C)cc1Br,0.0122 µM
2,COCCN(CCOC)c1nc(C)nc2c1n(C)c(=O)n2-c1ccc(C(C)C)cc1Br,0.13 µM
3,CCCN(CCC)c1nc(C)nc2c1n(C)c(=O)n2-c1c(C)cc(C)nc1C,0.259 µM
4,CCCCN(CC)c1nc(C)cc2c1n(C)c(=O)n2-c1ccc(C(C)C)cc1Br,0.463 µM
5,CCC(COC)Nc1nc(C)nc2c1n(C)c(=O)n2-c1ccc(C(C)C)cc1Br (configuration not stated),0.0428 µM
6,CCCCN(CC)c1nc(C)nc2c1nc(OCC1CC1)n2-c1ccc(C(C)C)cc1Br,0.0311 µM
7,CCCCN(CC)c1nc(C)nc2c1nc(OC)n2-c1ccc(C(C)C)cc1Br,0.0015 µM
8,COCCN(Cc1ccccc1)c1nc(C)nc2c1n(C)c(=O)n2-c1ccc(C(C)C)cc1Br,0.0262 µM
9,CCCCN(CC)c1nc(C)nc2c1nc(Cl)n2-c1ccc(C(C)C)cc1Br,0.0015 µM
10,CCCN(CC1CC1)c1nc(C)nc2c1n(C)c(=O)n2-c1c(C)cc(C)cc1C,0.0061 µM
11,CCCN(CCC)c1nc(C)nc2c1n(C)c(=O)n2-c1ccc(C(C)C)cc1Br,0.0076 µM

# Further compounds by falling Ki, results first:
row,Ki,SMILES
1,0.89 µM,CCCCN(CC)c1nc(C)nc2c1nc(O)n2-c1ccc(C(C)C)cc1Br
2,0.698 µM,COCCN(CCOC)c1nc(C)nc2c1n(C)c(=O)n2-c1c(C)cc(C)cc1C
3,0.345 µM,CCCCN(CC)c1nc(C)nc2c1nc(N1CCOCC1)n2-c1ccc(C(C)C)cc1Br
4,0.124 µM,CCCCN(CC)c1nc(C)nc2c1n(C)c(=O)n2-c1c(C)cc(C)nc1C
5,0.117 µM,CCCCN(CC)c1nc(C)nc2c1n(CC1CC1)c(=O)n2-c1ccc(C(C)C)cc1Br
6,0.113 µM,CCCN(CC1CC1)c1nc(C)nc2c1n(C)c(=O)n2-c1c(C)cc(C)nc1C
7,0.0479 µM,CCN(CCOC)c1nc(C)nc2c1n(C)c(=O)n2-c1ccc(C(C)C)cc1Br
8,0.0174 µM,CCCCC(CC)Nc1nc(C)nc2c1n(C)c(=O)n2-c1c(C)cc(C)cc1C (configuration not stated)
9,0.0151 µM,CCCCC(CC)Nc1nc(C)nc2c1n(C)c(=O)n2-c1ccc(C(C)C)cc1Br (configuration not stated)
10,0.0057 µM,CCCN(CC1CC1)c1nc(C)nc2c1n(C)c(=O)n2-c1ccc(C(C)C)cc1Br
11,0.003 µM,CCCCN(CC)c1cc(C)nc2c1n(C)c(=O)n2-c1ccc(C(C)C)cc1Br
